“Also recorded” adds a separate entry of the source. Each block holds one compound with its values, some of them ahead of it. Where a SMILES comes first, the peptide text is derived from it. Bridges are numbered along the chain shown (N, C = ends). Where no end group is shown, it is not given here. [ ]: non-standard residue; d: D form. Lys(Me3) = C[N+](C)(C)CCCC[C@H](N)C(=O)O; Phe(4-F) = N[C@@H](Cc1ccc(F)cc1)C(=O)O; NMeV = CN[C@H](C(=O)O)C(C)C; NMeC = CN[C@@H](CS)C(=O)O
Key:
[1] = biological target: T1, KDM4A (Homo sapiens, UniProt O75164); experiment: AlphaScreen demethylase activity assay, KDM4A; format: biochemical; details: for IC50: KDM4A 1-359
T1 construct: KDM4A 1-359 E.coli; Hexa-His (N); made in house; host or cells: E. coli
T1 sequence (O75164 1-359): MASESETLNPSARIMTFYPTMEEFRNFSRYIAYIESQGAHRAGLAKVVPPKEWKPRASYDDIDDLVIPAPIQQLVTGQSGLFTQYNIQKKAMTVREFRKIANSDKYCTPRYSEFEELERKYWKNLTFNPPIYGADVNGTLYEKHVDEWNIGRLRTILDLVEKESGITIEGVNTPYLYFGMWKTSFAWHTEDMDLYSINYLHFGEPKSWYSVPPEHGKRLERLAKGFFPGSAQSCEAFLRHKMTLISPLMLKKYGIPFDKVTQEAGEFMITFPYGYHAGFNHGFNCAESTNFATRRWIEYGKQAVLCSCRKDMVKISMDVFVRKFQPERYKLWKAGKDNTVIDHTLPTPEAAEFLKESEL
Description: IC50 values for KDM2–6 were measured using an AlphaScreen assay as described. The appropriate KDM (5 μl) was pre-incubated with an inhibitor (0.1 μl in DMSO) or DMSO for 15 min before the addition of 5 μl mixture of biotinylated peptide substrates, 2OG, ferrous ammonium sulfate (1–10 μM final) and ascorbate (100 μM final) to initiate the demethylation reaction. The reaction was quenched with 5 μl of 30 mM EDTA at predetermined reaction times for each enzyme (initial rate). Demethylated product was detected by addition of 5 μl of AlphaScreen donor and acceptor beads (AlphaScreen General IgG Detection Kit, 0.02 mg ml^−1 final each) pre-incubated with antibody. The plates were read after 1 h incubation in a BMG Labtech Pherastar FS plate reader. Data were normalized to a no enzyme control and IC50 values were calculated using nonlinear regression curve fits using GraphPad Prism. Assay buffer (50 mM HEPES pH 7.5, BSA (0.1% w/v) and Tween-20 (0.01% v/v)) was used throughout, except for dilution of stock ferrous ammonium sulfate solutions where water was used. The enzyme, substrate and antibody concentrations used are described in Supplementary Table 3. A fluorescence-based LSD1 inhibitor screening assay kit (Cayman, 700120) was used for KDM1/LSD1 assay. Assays for prolyl hydroxylase domain 2 and factor inhibiting HIF using matrix-assisted laser desorption/ionization–time of flight MS were performed as previously described. Prism 5.0 (GraphPad) was used to generate and to fit dose–response curves. IC50 values were determined by plotting percentage inhibition versus compound concentration relative to positive (vehicle) and negative (no enzyme) controls, using normalized dose–response (variable slope) fit. The reported values are the mean of multiple experiments (n≥3). The formaldehyde dehydrogenase coupled KDM assay was used to determine the mode of inhibition, using 0.5 μM His-KDM4A1–359. Prism 5.0 (GraphPad) was used to fit in mix-mode inhibition, to determine the kinetic parameters. Binding constants for CPs and H3(1–15)K9me3 were measured using biolayer interferometry (OctetRed 384, ForteBio) in buffer (50 mM HEPES (pH 7.5), 150 mM NaCl, 10 μM ammonium iron(II) sulphate). His-KDM4A1–359-Bio (70 nM) was immobilized onto super streptavidin biosensor and subjected to different peptide concentrations in buffer. Data analysis was performed using ForteBio Data Aalysis (v6.4).
Construct Expression [E] / nM [2OG] / µM [Fe(II)] / µM Peptide / nM Peptide sequence Antibody Source […]
Supplementary Table 3. AlphaScreen assay parameters for 2OG oxygenases used for this study. The table was dapted from 10. Assays were performed at 2OG concentration near the 2OG Km values determined experimentally.11 All enzymes were expressed and purified as described.10-12

[2] = biological target: T2, His-KDM4A1-359-Bio (Homo sapiens, UniProt O75164); experiment: Biolayer interferometry binding to KDM4A
T2 construct: KDM4A protein (residues 1-359) was cloned into the pNIC-Bio3 plasmid, which incorporates a C-terminal AviTag; made in house; host or cells: E. coli BL21(DE3)Rosetta co-transfected with pCDF-BirA
T2 sequence (O75164 1-359): T1 sequence (O75164 1-359)

[3] = tested on: H3K9me3/H3K36me3 in HeLa cells; experiment: Immunofluorescence of global histone methylation, 72 h dosing; format: cell-based; details: 72 h treatment
Text: Supplementary Figure 12. Immunofluorescence analysis of global histone methylation levels after 72hr dosing of cyclic peptides in HeLa cells. (a)-(c) Immunofluorescence analysis of HeLa cells dosed with cyclic peptides for 72 hrs. Maximum intensity projected images of 3D confocal z-stacks showing nuclei stained with […]
DMSO and CP2 treated cells. Bar represents 50µm. Global H3K9me3 (d) and associated nuclei count for the […]
staining, (h) global H3K4me3 and (i) global H3K27me3 staining. An increase in fluorescence intensity, […]
over certain concentration ranges. Average +/- s.e.m (n > 100 cells) are shown except at concentrations of […]
A generic 2OG oxygenase inhibitor 5-carboxy-8-
Immunofluorescence (IF) assay […]
with 0.5% FBS and 1% Pen-Strep. […]
grade plate (Becton Dickinson) and left overnight to adhere. Cells were dosed with cyclic […]
After 30min blocking (3% FBS in […]
three times after each incubation. […]
Image acquisition and analysis […]
image immunostained cells in a 96-well plate configuration. For each well, the system […]
The average intensity for each […]
analysed using GraphPad Prism 5. […]

[4] = biological target: T3, KDM4C (Homo sapiens, UniProt Q9H3R0); experiment: AlphaScreen demethylase activity assay, KDM4C; format: biochemical
T3 construct: KDM4C 1-366 E.coli; made in house; host or cells: E. coli
T3 sequence (Q9H3R0 1-366): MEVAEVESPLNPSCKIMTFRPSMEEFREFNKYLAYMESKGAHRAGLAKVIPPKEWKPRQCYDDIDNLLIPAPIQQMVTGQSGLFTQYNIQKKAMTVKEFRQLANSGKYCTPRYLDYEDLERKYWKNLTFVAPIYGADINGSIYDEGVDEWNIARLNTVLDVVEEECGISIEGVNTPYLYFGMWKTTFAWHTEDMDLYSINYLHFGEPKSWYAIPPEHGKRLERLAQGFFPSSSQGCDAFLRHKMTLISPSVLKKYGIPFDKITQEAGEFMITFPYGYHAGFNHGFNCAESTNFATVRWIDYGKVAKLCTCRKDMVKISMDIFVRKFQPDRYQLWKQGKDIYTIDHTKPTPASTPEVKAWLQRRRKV
Description: IC50 values for KDM2–6 were measured using an AlphaScreen assay as described. The appropriate KDM (5 μl) was pre-incubated with an inhibitor (0.1 μl in DMSO) or DMSO for 15 min before the addition of 5 μl mixture of biotinylated peptide substrates, 2OG, ferrous ammonium sulfate (1–10 μM final) and ascorbate (100 μM final) to initiate the demethylation reaction. The reaction was quenched with 5 μl of 30 mM EDTA at predetermined reaction times for each enzyme (initial rate). Demethylated product was detected by addition of 5 μl of AlphaScreen donor and acceptor beads (AlphaScreen General IgG Detection Kit, 0.02 mg ml^−1 final each) pre-incubated with antibody. The plates were read after 1 h incubation in a BMG Labtech Pherastar FS plate reader. Data were normalized to a no enzyme control and IC50 values were calculated using nonlinear regression curve fits using GraphPad Prism. […] A fluorescence-based LSD1 inhibitor screening assay kit (Cayman, 700120) was used for KDM1/LSD1 assay. […] IC50 values were determined by plotting percentage inhibition versus compound concentration relative to positive (vehicle) and negative (no enzyme) controls, using normalized dose–response (variable slope) fit. […] Binding constants for CPs and H3(1–15)K9me3 were measured using biolayer interferometry (OctetRed 384, ForteBio) in buffer (50 mM HEPES (pH 7.5), 150 mM NaCl, 10 μM ammonium iron(II) sulphate). […]

[5] = biological target: T4, KDM4A1-359 (Homo sapiens, UniProt O75164); experiment: MALDI-TOF MS demethylation of CP2 variants as substrates; format: biochemical; details: KDM4A 2 μM, peptide 10 μM, 2OG 100 μM, 2 h 37 °C
T4 construct: Hexa-His (N); made in house
T4 sequence (O75164 1-359): T1 sequence (O75164 1-359)
Description: Figure 3 KDM4A can demethylate methylated lysine and arginine containing non-histone sequences. […] The reaction product was analysed using matrix-assisted laser desorption/ionization–time of flight MS. Reactions containing enzymes are in red, no enzyme peptide controls are in black.

[6] = tested on: FLAG-KDM4A in HeLa cells; experiment: Immunofluorescence of H3K9me3 in HeLa cells overexpressing FLAG-KDM4A, 24 h dosing
[7] = tested on: KDM4A; set-up: method as in earlier work; details: ref 4 (King et al., supplementary references); read-out: EC50 KDM4A inhibition in cells; cited from earlier work

Intra-subfamily selectivity KDM4A-C over KDM4D-E ([1]; ratio of IC50 values): > 100 fold
Selectivity by IC50 for KDM4 over other JmjC-demethylase families, PHD2, FIH and KDM1A ([1]; ratio of IC50 values): > 160 fold
KDM4A Binding kdiss [2]: 0.000784 s⁻¹
KDM4A Binding kon [2]: 21800 M⁻¹ s⁻¹
Compound: LYLKSRRSGLTWIPC [CP4]

Compound: DY(meV)YNTRSDAWRW(4FF)P(meC) [CP2.3]
Inhibitor range with increases in nuclear H3K9me3/H3K36me3 staining [3]: 10 to 20 µM

IC50 [4]: > 10 µM
Compound: CC(C)[C@H]1C(=O)N[C@@H](Cc2ccc(O)cc2)C(=O)N[C@@H](CC(N)=O)C(=O)N[C@@H]([C@@H](C)O)C(=O)N[C@@H](C)C(=O)N[C@@H](CO)C(=O)N[C@H](C)C(=O)N[C@@H](Cc2c[nH]c3ccccc23)C(=O)N[C@@H](CCCNC(=N)N)C(=O)N[C@@H](Cc2c[nH]c3ccccc23)C(=O)N[C@@H](Cc2ccc(F)cc2)C(=O)N2CCC[C@H]2C(=O)N(C)[C@H](C(N)=O)CSCC(=O)N[C@H](Cc2ccc(O)cc2)C(=O)N1C [CP2.3(R6A)] ({CH2CO}-[dY][NMeV]YNTAS[dA]WRW[Phe(4-F)]P[NMeC]-NH2; thioether N-14)

KDM4A IC50 relative to CP2 ([1]; AlphaScreen): four fold higher
Compound: DYVYNTRSGWRWYTC [Linear CP2]

Selectivity by IC50 for KDM4 over other JmjC-demethylase families, PHD2, FIH and KDM1A ([1]; ratio of IC50 values): > 160 fold
KDM4A Binding kdiss [2]: 0.0107 s⁻¹
KDM4A Binding kon [2]: 62000 M⁻¹ s⁻¹
Compound: LYSKYTQSGVRWVC [CP5]

Compound: DYVYNTRSDAWRWYT(meC) [CP2.1]
Inhibitor range with increases in nuclear H3K9me3/H3K36me3 staining [3]: 10 to 20 µM

Demethylation of the peptide by KDM4A (substrate) [5]: efficiently demethylated
Demethylation of the peptide by KDM4A (substrate) ([5]; listed as CP2(R6Kme3)): substrates of KDM4A
Compound: DYVYNT[Lys(Me3)]SGWRWYTC [R6Kme3]

Compound: DY(meV)YNTRSDAWRWY(meT)(meC) [CP2.2]
Inhibitor range with increases in nuclear H3K9me3/H3K36me3 staining [3]: 10 to 20 µM

IC50 ([1]; AlphaScreen): > 100 µM
IC50 [4]: > 100 µM
Compound: CC[C@H](C)[C@@H]1NC(=O)[C@H](C)NC(=O)[C@@H]2CCCN2C(=O)[C@H]([C@@H](C)O)NC(=O)[C@H](Cc2ccc(O)cc2)NC(=O)[C@H](Cc2ccccc2)NC(=O)[C@H](Cc2c[nH]c3ccccc23)NC(=O)[C@H](Cc2ccc(O)cc2)NC(=O)CSC[C@@H](C(N)=O)NC(=O)[C@H](Cc2c[nH]c3ccccc23)NC(=O)[C@H](CCCNC(=N)N)NC1=O [CP3] ({CH2CO}-YWFYTPAIRWC-NH2; thioether N-11)

Compound: LYVYNT(Rme2a)SGWRWYTC (not fully specified (N-terminus, bridges)) [CP2(R6me2a)]
Demethylation of the peptide by KDM4A (substrate) [5]: demethylate; also recorded: substrates of KDM4A

Compound: DYVYNTRSGWRWYTC-BRRRRRRRRR [CP2(polyR)]
H3K9me3 levels in cells overexpressing FLAG-KDM4A (cellular KDM4A demethylase activity) [6]: Loss of H3K9me3 staining; also recorded: no inhibition of cellular KDM4A demethylase activity

IC50 ([1]; AlphaScreen): > 100 µM
Compound: CC[C@H](C)[C@@H]1NC(=O)CNC(=O)[C@H](CC(C)C)NC(=O)[C@H](Cc2c[nH]c3ccccc23)NC(=O)[C@H](Cc2ccc(O)cc2)NC(=O)[C@@H](Cc2ccc(O)cc2)NC(=O)CSC[C@@H](C(N)=O)NC(=O)[C@H](Cc2ccc(O)cc2)NC(=O)[C@H](CO)NC(=O)[C@H](CCCNC(=N)N)NC(=O)[C@@H]2CCCN2C(=O)[C@H]([C@@H](C)O)NC1=O [CP1] ({CH2CO}-[dY]YWLGITPRSYC-NH2; thioether N-12)

Reference: PMC5384220 (Nature Communications, 2017)
